According to patent EP4700040A1, “PEPTIDE AND LUMINESCENT COMPLEX CONTAINING SAME” (Shenzhen Loggene Life Science & Technology Co., Ltd., priority 2023, dated 2024):

Tests used:
Format in all cases: biochemical, human
PCT [1] = experiment: Luciferase dual-antibody complementary activation assay for PCT detection, clone supernatants, retest with CTZ-h (Example 1); conditions: for Signal-to-noise ratio: RLU antigen+/RLU antigen-, MBP-PCT 3.3 ng/ml, CTZ-h; for PCT+: luminescence signal value with MBP-PCT 3.3 ng/ml, large subunit-rSCFV5 50 nM, supernatant; for PCT+ / PCT-: retest CTZ-h 25 µM, read after 60 s; for PCT-: luminescence signal value, background control PBSAD without PCT
Method: In order to improve the signal-to-noise ratio and complementary activity of the luciferase dual-antibody complementary activation assay, a series of complementary luciferase small subunits were prepared in this example. Large subunit-rSCFV5 fusion protein (SEQ ID NO: 87) was kept unchanged, and the small subunit sequence of the rSCFV18-small subunit P114 fusion protein (SEQ ID NO: 88) was modified by semi-randomization to prepare rSCFV18-small subunit mutant fusion proteins. Based on the sequence of small subunit P114, and with reference to the 3D structure of complementary luciferase, computer-aided sequence design was employed to generate a library with a theoretical diversity of 2.49*10^6. Primers were designed for PCR amplification using the plasmid pComb3x of rSCFV18-small subunit P114 fusion protein as a template. Subsequently, an expression vector library was constructed by means of restriction digestion and ligation (SfiI, NheI), and a semi-random amino acid mutation library was introduced into the small subunit position and transformed into HB2151 competent cells, yielding a library capacity of 7.6*10^9. The 100 plates were spread, and 9,500 single clones were picked and inoculated into 600 µL of 2YTA medium, followed by incubation at 37°C with shaking at 250 rpm for 2 h. When the bacterial density reached approximately OD600 = 0.6~1.0, IPTG was then added to a final concentration of 1 mM, and the culture was further incubated at 30°C with shaking at 250 rpm for 20 h. The next day, the bacteria were collected by centrifugation at 4°C, 4,500g for 10min. The supernatant was discarded, and the precipitate was resuspended with 200µl of PBS containing polymyxin B at a final concentration of 20,000 u/ml. The suspension was incubated at room temperature with shaking at 100rpm for 1h, and then centrifuged at 4500g for 10min, and the supernatant was used for the test.
Test Methods: • (1) The concentration of large subunit-rSCFV5 fusion protein was diluted to 50 nM, and 15 µl was added per well; • (2) MBP-PCT fusion protein was diluted to 3.3 ng/ml with PBSAD, and 15 µl was added per well. The background control was PBSAD, and 10 µl was added per well; • (3) HB2151 strain containing expression plasmids with different small subunit were induced by 1 mM of IPTG at 30°C overnight, then treated with polymyxin B for 1.5 h, and centrifuged to collect the supernatant, and 2.5 µl supernatant was added per well; • (4) The above three components were slightly mixed, incubated at 37°C for 7 min, and Obuffer 6.37-3 containing Furimazine at a concentration of 25 µM was added, and after 80 s, the luminescence signal value was detected using a bioluminescence detector; and • (5) Clones with RLU higher than 10,000 and a signal-to-noise ratio (RLU antigen+/RLU antigen-) higher than that of the rSCFV18-small subunit P114 fusion protein were selected for retesting. The substrate was replaced with CTZ-h for retesting. Obuffer 6.37-3 containing CTZ-h at a concentration of 25 µM was added, and after 60 s, the luminescence signal value was detected using a bioluminescence detector.

PCT [2] = experiment: Second library screening for PCT detection, clone supernatants, retest with CTZ-h (Example 4)
Method: In order to further improve the signal-to-noise ratio and complementary activity of the luciferase dual-antibody complementary activation assay, novel complementary luciferase small subunits were prepared in this example. Large subunit-rSCFV5 fusion protein (SEQ ID NO: 87) was kept unchanged, and the small subunit sequence of the rSCFV18-RB073 fusion protein (SEQ ID NO: 89) were modified by semi-randomization. The theoretical diversity was 6912, the library capacity was 10^6, and 3,000 single clones were picked. The method of protein induction and expression was the same as that in Example 2.
Detection Methods: • (1) The concentration of large subunit-rSCFV5 fusion protein was diluted to 12.5 nM, and 15 µl was added per well; • (2) MBP-PCT fusion protein was diluted to 3.3 ng/ml with PBSAD, and 10 µl was added per well; • (3) HB2151 strain containing plasmids with different small subunit sequences were induced by IPTG at 30°C overnight, then treated with polymyxin B for 1.5h, and centrifuged to collect the supernatant, and 2.5µl supernatant was added per well; • (4) The above three components were slightly mixed, incubated at 37°C for 7 min, and Obuffer 6.37-3 containing Furimazine at a concentration of 25 µM was added, and after 3 min, the luminescence signal value was detected using a bioluminescence detector; and • (5) Clones with RLU higher than 10,000 were picked. The substrate was replaced with CTZ-h substrate for retesting (Obuffer 6.37-3 containing CTZ-h at a concentration of 25 µM was added, and after 60 s, the luminescence signal value was detected using a bioluminescence detector), and a PBSAD control was added to test the signal-to-noise ratio.

PCT [3] = experiment: Sensitivity and linear range for PCT detection of preferred small subunits (Example 5); conditions: for luminescence value: normalized
Method: Detection Methods: • (1) The concentration of large subunit-rSCFV5 fusion protein was diluted with PBSA to 8.3~25nM, and 15µl was added per well; • (2) MBP-PCT fusion proteins were diluted with PBSAD in a downward gradient starting from 2.5 µg/ml, and 10 µl was added per well; • (3) The rSCFV18-small subunit mutant-containing fusion protein was diluted with PBSA to 30~180 nM, and 15 µl was added per well; • (4) The above three components were slightly mixed, incubated at 37°C for 15 min, and Obuffer 6.37-3 containing CTZ-h at a concentration of 15 µM was added, and the luminescence signal value was immediately detected using a bioluminescence detector (the luminescence value was normalized);

Sequence | Signal-to-noise ratio (PCT [1]) | PCT+ (PCT [1]) | PCT- (PCT [1]) | other results
VEGYRLFDRKL [RB209] | 33.6 | 37398 | 1080 | 
VEGYRLFDRKL [RB212] | 33.6 | 33103 | 957 | 
VEGYRLFDRKW [RB186] | 45.1 | 27190 | 590 | 
VEGYRLFDRVW [RB128] | 38.8 | 26168 | 658 | 
VEGYRLFEKKL [RB149] | 21 | 79060 | 3587 | 
VEGYRLFEKVW [RB172] | 36.9 | 41446 | 1094 | 
VEGYRLFERIW [RB113] | 31.3 | 57092 | 1769 | 
VEGYRLFERIW [RB240] | 35.3 | 50183 | 1384 | 
VEGYRLFERKL [RB157] | 25.2 | 74319 | 2837 | 
VEGYRLFERKS [RB033] | 25.7 | 109352 | 4101 | 
VEGYRLFERKS [RB097] | 21 | 95553 | 4346 | 
VEGYRLFERKW [RB035] | 31.6 | 58318 | 1790 | 
VEGYRLFERKW [RB276] | 35 | 44654 | 1242 | 
VEGYRLFERVL [RB150] | 32.1 | 53945 | 1630 | 
VEGYRLFKREL [RB152] | 40 | 37150 | 906 | 
VEGYRLFNEKS [RB195] | 30.8 | 41519 | 1307 | 
VEGYRLFNKKS [RB054] | 25.7 | 92160 | 3449 | 
VEGYRLFNRKS [RB075] | 27.1 | 76733 | 2735 | 
VEGYRLFNRKS [RB252] | 20.3 | 70963 | 3324 | 
VEGYRLFNRKW [RB223] | 34.7 | 39231 | 1099 | 
VEGYRLFNRVG [RB122] | 20.2 | 55355 | 2605 | 
VEGYRLFNRVS [RB027] | 22.6 | 101765 | 4316 | 
VEGYRLHEKIS [RA128] | 45.2 | 17891 | 387 | 
VSGYRLFDKVS [RC-178] |  |  |  | Signal-to-noise ratio (PCT [2]; PCT+/PCT-, MBP-PCT 3.3 ng/ml, CTZ-h): 9.6; PCT+ (PCT [2]; luminescence signal value with MBP-PCT 3.3 ng/ml, large subunit-rSCFV5 12.5 nM, CTZ-h 25 µM, 60 s): 5708; PCT- (PCT [2]; luminescence signal value, PBSAD control without PCT, large subunit-rSCFV5 12.5 nM, CTZ-h 25 µM, 60 s): 593; luminescence value (PCT [3]; PCT 0.0, background): 5000; luminescence value (PCT [3]; PCT 1 (pg/ml)): 4911; luminescence value (PCT [3]; PCT 3 (pg/ml)): 5152; luminescence value (PCT [3]; PCT 10 (pg/ml)): 5180; luminescence value (PCT [3]; PCT 30 (pg/ml)): 6047; luminescence value (PCT [3]; PCT 100 (pg/ml)): 8378; luminescence value (PCT [3]; PCT 1000 (pg/ml)): 41922; luminescence value (PCT [3]; PCT 10000 (pg/ml)): 350855; luminescence value (PCT [3]; PCT 100000 (pg/ml)): 1664322; luminescence value (PCT [3]; PCT 250000 (pg/ml)): 1858964; Signal-to-noise ratio at 1000 pg/ml (PCT [3]; large subunit 8.3~25 nM, small subunit fusion 30~180 nM, CTZ-h 15 µM): 8.4
